The target of assay [1] is T1, human MR (Homo sapiens, UniProt P08235).
T1 construct: The full length human MR gene is cloned from a human kidney or human brain cDNA library; His tag from the pAcHLT vector (own knowledge); made in house; host or cells: Sf9 insect cells (baculovirus, pAcHLT transfer vector)
T1 sequence (P08235 1-984): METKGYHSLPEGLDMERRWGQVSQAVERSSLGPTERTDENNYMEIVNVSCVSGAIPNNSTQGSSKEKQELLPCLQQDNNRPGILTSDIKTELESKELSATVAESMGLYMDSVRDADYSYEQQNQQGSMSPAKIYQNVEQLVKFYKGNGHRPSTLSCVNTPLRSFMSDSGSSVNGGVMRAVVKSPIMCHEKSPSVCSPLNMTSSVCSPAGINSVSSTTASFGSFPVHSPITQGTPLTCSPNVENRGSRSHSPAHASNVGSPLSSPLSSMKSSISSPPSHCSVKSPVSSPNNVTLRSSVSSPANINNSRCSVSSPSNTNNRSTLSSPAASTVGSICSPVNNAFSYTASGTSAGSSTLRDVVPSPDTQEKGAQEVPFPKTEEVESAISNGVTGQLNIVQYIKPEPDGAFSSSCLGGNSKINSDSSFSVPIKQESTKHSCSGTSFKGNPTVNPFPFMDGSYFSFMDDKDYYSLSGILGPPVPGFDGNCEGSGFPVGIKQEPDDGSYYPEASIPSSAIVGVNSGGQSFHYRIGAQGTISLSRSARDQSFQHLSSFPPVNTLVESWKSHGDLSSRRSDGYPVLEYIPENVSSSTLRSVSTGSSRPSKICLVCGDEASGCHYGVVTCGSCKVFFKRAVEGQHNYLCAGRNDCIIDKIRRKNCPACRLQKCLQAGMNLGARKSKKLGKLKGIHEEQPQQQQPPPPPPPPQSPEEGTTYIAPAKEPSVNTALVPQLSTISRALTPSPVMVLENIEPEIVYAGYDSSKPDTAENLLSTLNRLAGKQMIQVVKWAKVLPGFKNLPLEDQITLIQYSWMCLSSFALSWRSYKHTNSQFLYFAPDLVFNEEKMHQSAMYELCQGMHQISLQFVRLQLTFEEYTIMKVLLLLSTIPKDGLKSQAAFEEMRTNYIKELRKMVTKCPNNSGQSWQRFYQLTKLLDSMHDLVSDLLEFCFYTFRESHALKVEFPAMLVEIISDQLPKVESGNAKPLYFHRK
The experiment in a line: Mineralocorticoid Receptor Binding Assay ([3H]-aldosterone). The conditions noted are these: [3H]-aldosterone binding, human MR expressed in Sf9 cells; read-out: MR Ki. The method, boiled down: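 Lysate supernatant of Sf9 cells expressing full-length human MR (20-25 μg protein) was incubated with 0.5 nM [3H]-aldosterone and test compound in molybdate/Tris/phosphate/glycerol buffer, pH 7.5, ~16 h at 4 °C. Bound ligand was filtered and counted by scintillation; IC50 is the concentration halving [3H]-aldosterone binding.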

The target of assay [2] is T2, glucocorticoid receptor (Homo sapiens, UniProt P04150).
T2 construct: containing 50-200 ug of A549 cell extract and 1.86 nM [^3H]-dexamethasone; host or cells: A549 human lung epithelial cells (sonicated cell extract)
T2 sequence (P04150 1-777): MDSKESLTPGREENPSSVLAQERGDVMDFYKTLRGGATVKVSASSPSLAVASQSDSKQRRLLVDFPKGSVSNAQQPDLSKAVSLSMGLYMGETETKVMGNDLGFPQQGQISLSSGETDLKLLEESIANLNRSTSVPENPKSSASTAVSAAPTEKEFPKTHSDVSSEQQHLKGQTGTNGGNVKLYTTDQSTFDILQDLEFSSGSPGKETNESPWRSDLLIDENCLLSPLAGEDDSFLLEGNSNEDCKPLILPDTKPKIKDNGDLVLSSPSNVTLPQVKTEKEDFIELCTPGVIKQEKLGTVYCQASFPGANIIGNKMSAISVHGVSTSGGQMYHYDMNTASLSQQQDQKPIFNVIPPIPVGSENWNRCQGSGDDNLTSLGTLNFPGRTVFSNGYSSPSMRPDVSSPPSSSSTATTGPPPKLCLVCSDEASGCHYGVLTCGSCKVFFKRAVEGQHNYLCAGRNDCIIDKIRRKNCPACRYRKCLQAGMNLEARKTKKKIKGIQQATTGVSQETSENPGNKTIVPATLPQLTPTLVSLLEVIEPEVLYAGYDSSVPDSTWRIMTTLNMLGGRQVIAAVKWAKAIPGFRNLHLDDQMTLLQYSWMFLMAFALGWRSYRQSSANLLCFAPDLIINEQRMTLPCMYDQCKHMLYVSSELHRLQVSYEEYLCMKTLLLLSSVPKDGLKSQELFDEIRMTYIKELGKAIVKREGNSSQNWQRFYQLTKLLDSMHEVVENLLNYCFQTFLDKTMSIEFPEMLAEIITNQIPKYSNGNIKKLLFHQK
As to the kind of experiment: Glucocorticoid Receptor Binding Assay ([3H]-dexamethasone, A549 cell extract). The conditions noted are these: [3H]-dexamethasone binding, read-out: GR Ki. The method, boiled down: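 A549 cell extract (50–200 ug) incubated with 1.86 nM [3H]-dexamethasone and test compound for 16 h at 4 °C in Tris-HCl pH 7.2 buffer with glycerol and molybdate. Unbound radioligand removed by dextran-coated charcoal, then supernatant bound counts measured by scintillation.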

For orientation: Ki means the dissociation constant of the complex between target and ligand, obtained from inhibition or displacement.

Take `Cc1ccc2c(c1)OCc1ccccc1/C2=C\c1cccc(NS(C)(=O)=O)c1` [Example 676]: the inhibition constant (Ki) in assay [1] and in assay [2] was < 500 nM throughout.

As to `Cc1ccc2c(c1)/C(=C\c1cccc(NS(C)(=O)=O)c1)c1ccccc1CO2` [Example 677], the inhibition constant Ki in assay [1] and in assay [2] was < 500 nM in each case.

`COc1ccc2c(c1)/C(=C/c1cccc(NS(C)(=O)=O)c1)c1ccccc1CO2` [Example 679]: the Ki in assay [1] and in assay [2] was < 500 nM throughout.

On to `CS(=O)(=O)Nc1cccc(/C=C2/c3ccccc3COc3ccc(Cl)cc32)c1` [Example 680], for which the inhibitory constant (Ki) in assay [1] is < 500 nM; in assay [2], < 1000 nM.

Turning to `CS(=O)(=O)Nc1cccc(/C=C2\c3ccccc3COc3ccc(Cl)cc32)c1` [Example 681], the Ki in assay [1] and in assay [2] was < 500 nM each time.

As for `CS(=O)(=O)Nc1cccc(/C=C2/c3ccccc3COc3cc(C(F)(F)F)ccc32)c1` [Example 682], the Ki in assay [1] and in assay [2] was < 500 nM each time.

Take `CS(=O)(=O)Nc1cccc(/C=C2\c3ccccc3COc3cc(C(F)(F)F)ccc32)c1` [Example 683]: the Ki in assay [1] and in assay [2] was < 500 nM each time.

In the case of `COc1ccc2c(c1OC)CSc1ccccc1/C2=C/c1cccc(NS(C)(=O)=O)c1` [Example 684], the Ki in assay [1] and in assay [2] was < 500 nM in each case.

As to `COc1ccc2c(c1OC)CSc1ccccc1/C2=C\c1cccc(NS(C)(=O)=O)c1` [Example 685], the inhibition constant (Ki) in assay [1] and in assay [2] was < 500 nM each time.

As to `COc1cc2c(c(OC)c1)/C(=C\c1cccc(NS(C)(=O)=O)c1)c1ccccc1SC2` [Example 687], the Ki in assay [1] and in assay [2] was < 500 nM in each case.

Take `COc1ccc(C=C2c3ccccc3CSc3ccccc32)cn1` [Example 688]: the inhibition constant Ki in assay [1] and in assay [2] was < 500 nM throughout.

Regarding `CC(=O)Nc1cccc(/C=C2\c3ccccc3CSc3ccccc32)c1` [Example 691], the Ki in assay [1] is < 1000 nM; in assay [2], < 500 nM.

Regarding `COc1ccc2c(c1)CSc1ccccc1/C2=C/c1cccc(NS(C)(=O)=O)c1` [Example 692], the inhibition constant (Ki) in assay [1] and in assay [2] was < 500 nM throughout.

As for `CS(=O)(=O)Nc1cccc(C=C2c3ccc(Cl)cc3CSc3ccccc32)c1` [Example 693], the inhibition constant Ki in assay [1] and in assay [2] was < 500 nM each time.

As for `COc1ccc2c(c1)SCc1ccccc1/C2=C\c1cccc(NS(C)(=O)=O)c1` [Example 694], the inhibition constant (Ki) in assay [1] and in assay [2] was < 500 nM each time.

Take `Cc1cccc2c1SCc1ccccc1C2=Cc1cccc(NS(C)(=O)=O)c1` [Example 695]: the inhibition constant Ki in assay [1] and in assay [2] was < 500 nM each time.

For `COc1cccc2c1/C(=C\c1cccc(NS(C)(=O)=O)c1)c1ccccc1SC2` [Example 696], the inhibition constant (Ki) in assay [1] and in assay [2] was < 500 nM each time.

Take `O=S(=O)(Nc1cccc(/C=C2\c3ccccc3CSc3ccccc32)c1)C1CC1` [Example 698]: the Ki in assay [1] is < 1000 nM; in assay [2], < 500 nM.

Take `OCc1cccc(/C=C2\c3ccccc3CSc3ccccc32)c1` [Example 699]: the Ki in assay [1] and in assay [2] was < 500 nM in each case.

For the compound `O=S(=O)(Cc1cccc(/C=C2\c3ccccc3CSc3ccccc32)c1)c1cccc(C(F)(F)F)c1` [Example 700], the Ki in assay [1] and in assay [2] was < 500 nM throughout.

For `C(=C1c2ccccc2CSc2ccccc21)c1ccccc1` [Example 701], the inhibition constant (Ki) in assay [1] and in assay [2] was < 500 nM in each case.

As to `CS(=O)(=O)Nc1cccc(C=C2c3ccc(Cl)cc3CSc3cc(Cl)ccc32)c1` [Example 702], the Ki in assay [1] is < 500 nM; in assay [2], < 10000 nM.

For `COc1cccc2c1/C(=C/c1cccc(NS(C)(=O)=O)c1)c1ccccc1OC2` [Example 703], the inhibition constant Ki in assay [1] and in assay [2] was < 500 nM in each case.

Take `COc1cccc2c1/C(=C\c1cccc(NS(C)(=O)=O)c1)c1ccccc1OC2` [Example 704]: the Ki in assay [1] and in assay [2] was < 500 nM in each case.

Consider `COc1ccc2c(c1)COc1ccccc1/C2=C\c1cccc(NS(C)(=O)=O)c1` [Example 705], for which the inhibition constant (Ki) in assay [1] and in assay [2] was < 500 nM throughout.

Take `COc1ccc2c(c1)OCc1ccccc1/C2=C/c1cccc(NS(C)(=O)=O)c1` [Example 706]: the inhibition constant Ki in assay [1] and in assay [2] was < 500 nM throughout.

With `COc1cccc2c1COc1ccccc1/C2=C\c1cccc(NS(C)(=O)=O)c1` [Example 707], the Ki in assay [1] and in assay [2] was < 500 nM in each case.

`COc1cccc2c1COc1ccccc1/C2=C/c1cccc(NS(C)(=O)=O)c1` [Example 708]: the Ki in assay [1] and in assay [2] was < 500 nM each time.

Take `O=c1[nH]c2cc(/C=C3/c4ccccc4COc4cc(F)ccc43)ccc2n1C1CC1` [Example 709]: the Ki in assay [1] and in assay [2] was < 500 nM in each case.

On to `CC(C)Cn1c(=O)[nH]c2cc(/C=C3\c4ccccc4COc4cc(F)ccc43)ccc21` [Example 710], for which the Ki in assay [1] and in assay [2] was < 500 nM each time.

With `CC(C)Cn1c(=O)[nH]c2cc(/C=C3/c4ccccc4COc4cc(F)ccc43)ccc21` [Example 711], the inhibition constant (Ki) in assay [1] is < 500 nM; in assay [2], < 1000 nM.

As to `O=c1[nH]c2cc(/C=C3/c4ccccc4COc4cc(F)ccc43)ccc2n1CCN1CCOCC1` [Example 712], the Ki in assay [1] and in assay [2] was < 500 nM throughout.

For the compound `O=c1[nH]c2ccc(C=C3c4ccccc4OCc4c(F)cccc43)cc2[nH]1` [Example 713], the inhibition constant (Ki) in assay [1] and in assay [2] was < 500 nM in each case.

`O=c1[nH]c2ccc(C=C3c4cc(F)ccc4COc4ccccc43)cc2[nH]1` [Example 714]: the Ki was < 500 nM in assay [1] and < 10000 nM in assay [2].

On to `O=c1[nH]c2ccc(C=C3c4cc(Cl)ccc4COc4ccccc43)cc2[nH]1` [Example 715], for which the Ki in assay [1] was < 500 nM; in assay [2], < 1000 nM.

As for `O=c1[nH]c2cc(/C=C3/c4ccc(F)cc4OCc4ncsc43)ccc2n1CCN1CCOCC1` [Example 718], the Ki in assay [1] was < 500 nM; in assay [2] it was < 10000 nM.

With `O=S(=O)(CC(F)(F)F)Nc1cccc(C=C2c3ccc(Cl)cc3CSc3cc(Cl)ccc32)c1` [Example 721], the inhibitory constant (Ki) in assay [1] and in assay [2] was < 500 nM each time.

Consider `CS(=O)(=O)NCc1cccc(/C=C2\c3ccccc3CSc3ccccc32)c1` [Example 722], for which the Ki in assay [1] and in assay [2] was < 500 nM in each case.

For `CS(=O)(=O)Nc1cccc(/C=C2\c3ccc(F)cc3COc3ccccc32)c1` [Example 723], the Ki in assay [1] and in assay [2] was < 500 nM throughout.

On to `CS(=O)(=O)Nc1cccc(/C=C2/c3ccc(F)cc3COc3ccccc32)c1` [Example 724], for which the inhibition constant Ki in assay [1] and in assay [2] was < 500 nM in each case.

The record behind these values is patent US20060063759A1, “Tricyclic steroid hormone nuclear receptor modulators” (priority 2002, published 2006).
